Data: PMC10610134, “Verubulin (Azixa) Analogues with Increased Saturation: Synthesis, SAR and Encapsulation in Biocompatible Nanocontainers Based on Ca^2+ or Mg^2+ Cross-Linked Alginate” (Pharmaceuticals, 2023)

Experiments:
[1] = tested on: human lung epithelial carcinoma cell line A549; assay: MTT cytotoxicity assay, A549; format: cell-based; conditions: A549, 64 h treatment, MTT, read-out: IC50, nM A549
Source text: (§1) The obtained series of verubulin analogues 2a–r (which also included three by-products isolated in the reactions according to Scheme 2) were initially evaluated for cytotoxicity against commonly used human breast cancer cell line MCF7′ (fast-growth subclone), human lung epithelial carcinoma cell line A549 and etiologically non-cancer immortalized lung fibroblast cell line VA13 (WI38 subline 2RA). Cytotoxicity against immortalized human embryonic kidney cell line HEK293T, characterized by a high growth rate, was also studied regarding cytotoxicity against non-cancerous fast-growth cells. A standard MTT assay was performed; verubulin (1) served as a positive reference. The data obtained are presented in Table 1 (for dose–response curves, see Supplementary Materials).
(§2) Human breast cancer cell line MCF7′ and human lung adenocarcinoma cell line A549 were kindly provided by Dr. S. Dmitriev (Lomonosov Moscow State University), immortalized human fibroblast cell line VA13 (WI38 subline 2RA) was kindly provided by Dr. M. Rubtsova (Lomonosov Moscow State University), human embryonic kidney HEK293T cell line was kindly provided by Dr. E. Knyazhanskaya (Lomonosov Moscow State University). MCF7′, VA13, A549 and HEK293T cell lines were maintained in DMEM/F-12 (Thermo Fisher Scientific, Waltham, MA, USA) culture medium containing 10% fetal bovine serum (Thermo Fisher Scientific, Waltham, MA, USA) and 50 μg/mL penicillin and 0.05 mg/mL streptomycin at 37 °C (Thermo Fisher Scientific, Waltham, MA, USA) in 5% CO2. Cells were maintained at 37 °C in a humidified MCO-18AC incubator (Sanyo, Tokyo, Japan) supplied with 5% CO2. Cell cultures were tested for the absence of mycoplasma and validated by STR.
(§3) The cytotoxicity of the substances was tested using the 3-(4,5-dimethylthiazol-2-yl)2,5-diphenyl tetrazolium bromide (MTT) assay with some modifications. A total of 2500 cells per well for the MCF7′, HEK293T, A549 cell lines or 4000 cells per well for the VA-13 cell line were plated out in 135 μL of DMEM-F12 media (Gibco, Thermo Fisher Scientific, Waltham, MA, USA) in a 96-well plate and incubated in the 5% CO2 incubator for the first 20 h without treatment. Then, 15.8 μL of media–DMSO solutions of tested substances (final DMSO concentrations in the media were 0.5% or less) was added to the cells (triplicate each) and cells were treated for 64 h with 0.023 mg/L–50 mg/L (eight dilutions) of compounds 2f,n,o,r; 1.14 μg/L–2.5 mg/L (eight dilutions) of compounds 2a,b,d,g,h,k,l,p,q; 57.2 ng/L–125 μg/L (eight dilutions) of compounds 2e,i,j; 22.9 ng/L–50 μg/L (eight dilutions) of compounds 1,2c,m. Doxorubicin was used as a control substance. Then, the MTT reagent (Paneco LLC, Moscow, Russia) was added to cells up to a final concentration of 0.5 g/L (10 × stock solution in PBS was used) and incubated for 2 h at 37 °C in the incubator, under an atmosphere of 5% CO2. Then, the MTT solution was discarded, and 140 μL of DMSO (PharmaMed LLC, Moscow, Russia) was added. The plates were swayed on a shaker (120 rpm) to dissolve the formazan. The absorbance was measured using a microplate reader (VICTOR X5 Light Plate Reader, PerkinElmer, Waltham, MA, USA) at a wavelength of 555 nm (in order to measure formazan concentration). The results were used to construct dose–response graphs and to estimate IC50 values (IC50 is the concentration resulting in half of the maximal cytotoxic effect) with GraphPad Prism V, GraphPadSoftware, Inc., San Diego, CA, USA.

[2] = tested on: immortalized lung fibroblast cell line VA13 (WI38 subline 2RA); assay: MTT cytotoxicity assay, VA13; format: cell-based; conditions: Homo sapiens, VA-13; 64 h treatment, MTT; read-out: IC50, nM VA13
Source text: as §1, §2, §3

[3] = tested on: MCF7′, A549, VA13, HEK293T cell lines; assay: MTT cytotoxicity, SAR statements over the cell line panel; format: cell-based, human
Source text: as §1, §3

[4] = tested on: HCT116 cell line; assay: MTT cytotoxicity towards HCT116; format: cell-based, human; conditions: HCT-116; HCT116, human colon carcinoma; read-out: IC50
[5] = tested on: A549 cell line; assay: MTT assay of nanocontainer formulations, A549; format: cell-based; conditions: Homo sapiens, 48 h treatment, 2c concentration in formulations = 0.1 × COO− concentration
Method: The MTT assay was carried out on the A549 cell line and non-tumor hTERT-immortalized human fibroblasts for 48 h (Table 2; for cell survival curves, see Supplementary Materials).
Lung adenocarcinoma A549, breast adenocarcinoma MDA-MB-231 and non-tumor fibroblasts immortalized with h-TERT cell lines were obtained from the American Type Culture Collection (Manassas, VA, USA). Cells were routinely propagated in Dulbecco’s modified Eagle’s medium (DMEM) supplemented with 10% fetal bovine serum (HyClone, Logan, UT, USA), 2 mM L-glutamine, 100 U/mL penicillin and 100 μg/mL streptomycin (PanEco, Moscow, Russia) at 37 °C, 5% CO2 in a humidified atmosphere. Cells in the logarithmic phase of growth were used in the experiments.
The cytotoxicity of compounds for human cell lines (A549, MDA-MB-231, non-tumor fibroblasts) was assessed in MTT assays. […]
Cytotoxicity was assessed in a formazan conversion assay (MTT test) after a 48 h exposure. After the completion of drug exposure, 0.5 mg/mL 3-(4,5-dimethylthiazol-2-yl)-2,5-diphenyltetrazolium bromide (MTT reagent) was added to cells for 2 h, the culture medium was removed, cells were resuspended in 100 μL DMSO and the optical densities were measured on a Multiscan FC plate spectrophotometer (Thermo Fisher Scientific, Waltham, MA, USA) at a wavelength of 571 nm. […]

- IC50 [5]: 0.6 ± 0.06 µM
Compound: COc1ccc(N(C)c2nc(C)nc3c2CCCC3)cc1 [Compound 2c, N-(4-methoxyphenyl)-N,2-dimethyl-5,6,7,8-tetrahydroquinazolin-4-amine]
- IC50 [1]: 2.7 ± 0.4 nM
- IC50 [2]: 1.6 ± 0.4 nM
- cytotoxicity, in words ([3]; MTT, 64 h): retained high cytotoxicity of the parent molecule
- selectivity towards tumor cells ([3]; pair A549/VA13): no selectivity
- IC50 [4]: 0.2 ± 0.01 nM
